Measurements taken from patent US8829007B2 (priority 2009, dated 2014).
Structures can show the parent of a compound that is named as a salt. Where two headings read alike, the source gives them in different places.

Tests used:
[1] = system: influenza A virus (A/PR/8/34); assay: microbe, parasite or virus in culture; assay type: cell-based
[2] = system: A/PR/8/34 influenza virus; assay: microbe, parasite or virus in culture; assay type: cell-based
[3] = Influenza A virus, PR/8, MDCK, mean all, A/PR/8/34 infected MDCK cells, CPE assay, read-out: IC50
[4] = Influenza A virus, PR/8, MDCK, mean all; A/PR/8/34 influenza virus in MDCK cells, bDNA assay; read-out: EC50
[5] = mean all, MDCK cells infected with A/PR/8/34, cell protection (CPE), read-out: IC50
[6] = mean all; bDNA viral RNA in MDCK cells infected with A/PR/8/34; read-out: EC50
[7] = Influenza A virus, PR/8, MDCK, CPE assay, A/PR/8/34 infected MDCK cells, class symbols, read-out: IC50 (mean all)
[8] = Influenza A virus, PR/8, MDCK, bDNA assay, A/PR/8/34 influenza virus replication in MDCK cells; class symbols; read-out: EC50 (mean all)
[9] = Influenza A virus, PR/8, MDCK, MDCK cells infected with A/PR/8/34, cell protection (CPE), read-out: IC50 (mean all)
[10] = Influenza A virus, PR/8, MDCK, MDCK cells infected with A/PR/8/34, bDNA viral RNA; read-out: EC50 (mean all)
[11] = Influenza A virus, PR/8, MDCK, MDCK cells infected with A/PR/8/34, survival of infected cells, class symbols, read-out: IC50 (mean all)
[12] = Influenza A virus, PR/8, MDCK, MDCK cells infected with A/PR/8/34; replication of influenza virus (viral RNA, bDNA); class symbols; read-out: EC50 (mean all)
[13] = Influenza A virus, PR/8, MDCK, read-out: IC50 (mean all)
[14] = Influenza A virus, PR/8, MDCK, read-out: EC50 (mean all)

COCCC(=O)N1CCC[C@@H](Nc2nc(-c3c[nH]c4ncc(Cl)cc34)ncc2F)C1 [Compound 320]
IC50 [1, 3]: 5 to 20 µM | EC50 [2, 4]: 5 to 10 µM

C#CCOC(=O)NC1CCCC(Nc2nc(-c3c[nH]c4ncc(Cl)cc34)ncc2F)C1 (stereo not drawn) [Compound 702]
IC50 [1, 5]: < 5 µM | EC50 [2, 6]: < 5 µM

CC(O)C(=O)N[C@@H]1CCC[C@H](Nc2nc(-c3c[nH]c4ncc(Cl)cc34)ncc2F)C1 (stereo partly drawn) [Compound 642, N-[(1R,3S)-3-[[2-(5-chloro-1H-pyrrolo[2,3-b]pyridin-3-yl)-5-fluoro-pyrimidin-4-yl]amino]cyclohexyl]-2-hydroxy-propanamide hydrochloride]
IC50 [1, 7]: < 5 µM | EC50 [2, 8]: < 5 µM

O=C(OCCCl)N1CCCC[C@H]1CNc1nc(-c2c[nH]c3ncc(Cl)cc23)ncc1F [Compound 163, (S)-2-chloroethyl 2-((2-(5-chloro-1H-pyrrolo[2,3-b]pyridin-3-yl)-5-fluoropyrimidin-4-ylamino)methyl)piperidine-1-carboxylate]
IC50 [1, 9]: 5 to 20 µM | EC50 [2, 10]: < 5 µM

COC1CCCCC1Nc1nc(-c2c[nH]c3ncc(Cl)cc23)ncc1F (stereo not drawn) [Compound 412, 2-(5-chloro-1H-pyrrolo[2,3-b]pyridin-3-yl)-5-fluoro-N-(2-methoxycyclohexyl)-pyrimidin-4-amine]
IC50 [1, 3]: < 5 µM | EC50 [2, 4]: < 5 µM

CCC(CC)O[C@@H]1CC(C(=O)O)=CC(Nc2nc(-c3c[nH]c4ncc(Cl)cc34)ncc2F)[C@H]1NC(C)=O (stereo partly drawn) [Compound 671]
IC50 [1, 7]: > 10 µM | EC50 [2, 8]: > 3.3 µM

O=C(Nc1cccc(F)c1)N1CCC[C@H](CNc2nc(-c3c[nH]c4ncc(Cl)cc34)ncc2F)C1 [Compound 75, (R)-3-((2-(5-chloro-1H-pyrrolo[2,3-b]pyridin-3-yl)-5-fluoropyrimidin-4-ylamino)methyl)-N-(3-fluorophenyl)piperidine-1-carboxamide]
IC50 [1, 9]: < 5 µM | EC50 [2, 10]: < 5 µM

COCC(=O)NC1CCCC(Nc2nc(-c3c[nH]c4ncc(Cl)cc34)nc(C(C)(C)O)c2F)C1 (stereo not drawn) [Compound 715]
IC50 [1, 5]: < 5 µM | EC50 [2, 6]: < 5 µM

CC(=O)N1CCCC(CNc2ccnc(-c3c[nH]c4ncc(Cl)cc34)n2)C1 (stereo not drawn) [Compound 490]
IC50 ([1]; MDCK cells infected with A/PR/8/34, survival of infected cells, class symbols, read-out: IC50 (mean all)): < 5 µM | EC50 ([2]; MDCK cells infected with A/PR/8/34; replication of influenza virus (viral RNA, bDNA); class symbols; read-out: EC50 (mean all)): < 5 µM

C=CCNC(=O)N1CCC[C@@H](CNc2nc(-c3c[nH]c4ncc(Cl)cc34)ncc2F)C1 [Compound 39, (S)—N-allyl-3-((2-(5-chloro-1H-pyrrolo[2,3-b]pyridin-3-yl)-5-fluoropyrimidin-4-ylamino)methyl)piperidine-1-carboxamide]
IC50 [1, 9]: < 5 µM | EC50 [2, 10]: < 5 µM

O=C(O)C1CCCCC1Nc1nc(-c2c[nH]c3ncc(Cl)cc23)nc(C(O)CO)c1F (stereo not drawn) [Compound 687]
IC50 [1, 5]: < 5 µM | EC50 [2, 6]: > 3.3 µM

C[C@H]1C[C@@H](NC(=O)N2CC[C@H](F)C2)C[C@@H](Nc2nc(-c3c[nH]c4ncc(F)cc34)ncc2F)C1 [compound 1067]
IC50 ([1]; Influenza A virus, PR/8, MDCK, MDCK cells, A/PR/8/34, ATP readout, mean all, read-out: Cell Flu, MDCK protection, ATP (All: IC50: uM)(Mean (All))): < 5 µM | EC50 ([2]; Influenza A virus, PR/8, 30 h, HA(−) 30 hr, A/PR/8, bDNA, mean all; read-out: Cell Influenza HA(−) 30 hr A/PR/8 bDNA:bDNA EC50 uM(Mean (All))): < 5 µM

CC(=O)N1CCCC(Nc2nc(-c3c[nH]c4ncc(Cl)cc34)ncc2F)CC1 (stereo not drawn) [Compound 497, 1-(4-(2-(5-chloro-1H-pyrrolo[2,3-b]pyridin-3-yl)-5-fluoropyrimidin-4-ylamino)azepan-1-yl)ethanone]
IC50 [1, 11]: < 5 µM | EC50 [2, 12]: < 5 µM

CC(C)(O)C(=O)NC1CCCC(Nc2nc(-c3c[nH]c4ncc(Cl)cc34)ncc2F)C1 (stereo not drawn) [Compound 681]
IC50 [1, 5]: < 5 µM | EC50 [2, 6]: < 5 µM

O=C(O)[C@@H]1CCCC[C@@H]1Nc1nc(-c2c[nH]c3ncc(Cl)cc23)ncc1F [Compound 578, (1R,2S)-2-(2-(5-chloro-1H-pyrrolo[2,3-b]pyridin-3-yl)-5-fluoropyrimidin-4-ylamino)cyclohexanecarboxylic acid]
IC50 [1, 11]: < 5 µM | EC50 [2, 12]: < 5 µM

C=C(C)OC(=O)N1CCC[C@H](CNc2nc(-c3c[nH]c4ncc(Cl)cc34)ncc2F)C1 [Compound 74, (R)-prop-1-en-2-yl 3-((2-(5-chloro-1H-pyrrolo[2,3-b]pyridin-3-yl)-5-fluoropyrimidin-4-ylamino)methyl)piperidine-1-carboxylate]
IC50 [1, 13]: < 5 µM | EC50 [2, 14]: < 5 µM

CCN1CCC[C@H](Nc2nc(-c3c[nH]c4ncc(Cl)cc34)ncc2F)C1=O [Compound 460]
IC50 [1, 3]: < 5 µM | EC50 [2, 4]: < 5 µM

NC(=O)N1CCC[C@H](Nc2nc(-c3c[nH]c4ncc(Cl)cc34)ncc2F)C1 [Compound 507]
IC50 [1, 11]: < 5 µM | EC50 [2, 12]: < 5 µM

COc1c(C)cccc1C(=O)N1CCC[C@H](CNc2nc(-c3c[nH]c4ncc(Cl)cc34)ncc2F)C1 [Compound 148, (R)-(3-((2-(5-chloro-1H-pyrrolo[2,3-b]pyridin-3-yl)-5-fluoropyrimidin-4-ylamino)methyl)piperidin-1-yl)(2-methoxy-3-methylphenyl)methanone]
IC50 [1, 9]: < 5 µM | EC50 [2, 10]: < 5 µM

CC(C)NC(=O)N1CCC[C@H](Nc2nc(-c3c[nH]c4ncc(Cl)cc34)ncc2F)C1 [Compound 439]
IC50 [1, 3]: < 5 µM | EC50 [2, 4]: < 5 µM

O[C@@H]1CCCC[C@H]1Nc1nc(-c2c[nH]c3ncccc23)ncc1F (relative stereo) [Compound 207, Trans-2-[[5-fluoro-2-(1H-pyrrolo[2,3-b]pyridin-3-yl)pyrimidin-4-yl]amino]cyclohexanol]
IC50 [1, 9]: < 5 µM | EC50 [2, 10]: < 5 µM

CC1(C(=O)N2CCC[C@H](Nc3nc(-c4c[nH]c5ncc(Cl)cc45)ncc3F)C2)COC1 [Compound 444]
IC50 [1, 3]: < 5 µM | EC50 [2, 4]: < 5 µM

O=C(Oc1ccccc1Cl)N1CCC[C@H](CNc2nc(-c3c[nH]c4ncc(Cl)cc34)ncc2F)C1 [Compound 70, (R)-2-chlorophenyl 3-((2-(5-chloro-1H-pyrrolo[2,3-b]pyridin-3-yl)-5-fluoropyrimidin-4-ylamino)methyl)piperidine-1-carboxylate]
IC50 [1, 13]: < 5 µM | EC50 ([2]; Influenza A virus, PR/8, MDCK; read-out: EC50 (mean all)): < 5 µM

COC(=O)NC1CCCC(Nc2nc(-c3c[nH]c4ncc(Cl)cc34)nc(C(C)(C)O)c2F)C1 (stereo not drawn) [Compound 716]
IC50 [1, 5]: < 5 µM | EC50 [2, 6]: < 5 µM

COC(=O)N1CCC[C@H](Nc2nc(-c3c[nH]c4ncc(Cl)cc34)ncc2F)C1 [Compound 440]
IC50 [1, 3]: < 5 µM | EC50 [2, 4]: < 5 µM

O=C1NCC(CN2CCCC(Nc3nc(-c4c[nH]c5ncc(Cl)cc45)ncc3F)C2)O1 (stereo not drawn) [Compound 619]
IC50 ([1]; CPE assay, A/PR/8/34 infected MDCK cells, class symbols, read-out: IC50 (mean all)): < 5 µM | EC50 ([2]; bDNA assay, A/PR/8/34 influenza virus replication in MDCK cells; class symbols; read-out: EC50 (mean all)): < 5 µM

CCCNC(=O)N1CCC[C@H](Nc2nc(-c3c[nH]c4ncc(Cl)cc34)ncc2F)C1 [Compound 324]
IC50 [1, 3]: 5 to 20 µM | EC50 [2, 4]: < 5 µM

COC(=O)N1CCCC[C@H]1CNc1nc(-c2c[nH]c3ncc(Cl)cc23)ncc1F [Compound 166, (S)-methyl 2-((2-(5-chloro-1H-pyrrolo[2,3-b]pyridin-3-yl)-5-fluoropyrimidin-4-ylamino)methyl)piperidine-1-carboxylate]
IC50 [1, 9]: 5 to 20 µM | EC50 [2, 10]: < 5 µM

Cc1cccc(NC(=O)N2CCC[C@H](CNc3nc(-c4c[nH]c5ncc(Cl)cc45)ncc3F)C2)c1 [Compound 78, (R)-3-((2-(5-chloro-1H-pyrrolo[2,3-b]pyridin-3-yl)-5-fluoropyrimidin-4-ylamino)methyl)-N-m-tolylpiperidine-1-carboxamide]
IC50 [1, 9]: < 5 µM | EC50 [2, 10]: < 5 µM

CCOC(=O)C1=CC(Nc2nc(-c3c[nH]c4ncc(Cl)cc34)ncc2F)[C@@H](NC(C)=O)[C@H](OC(CC)CC)C1 (stereo partly drawn) [Compound 670]
IC50 [1, 7]: > 10 µM | EC50 [2, 8]: > 3.3 µM

CC=CC(=O)N1CCC[C@@H](CNc2nc(-c3c[nH]c4ncc(Cl)cc34)ncc2F)C1 [Compound 41, (S)-1-(3-((2-(5-chloro-1H-pyrrolo[2,3-b]pyridin-3-yl)-5-fluoropyrimidin-4-ylamino)methyl)piperidin-1-yl)but-2-en-1-one]
IC50 [1, 13]: < 5 µM | EC50 [2, 14]: < 5 µM

CCNC(=O)[C@]1(O)CCC[C@H](Nc2nc(-c3c[nH]c4ncc(Cl)cc34)ncc2F)C1 [Compound 779, (1S,3S)-3-[[2-(5-chloro-1H-pyrrolo[2,3-b]pyridin-3-yl)-5-fluoro-pyrimidin-4-yl]amino]-N-ethyl-1-hydroxy-cyclohexanecarboxamide]
IC50 ([1]; Influenza A virus, PR/8, MDCK, mean all, A/PR/8/34 infected MDCK cells, cell protection (CPE), read-out: IC50): < 5 µM | EC50 ([2]; Influenza A virus, PR/8, mean all; A/PR/8/34 influenza virus replication, bDNA; read-out: EC50): < 5 µM

CCC1(O)CCCC(Nc2nc(-c3c[nH]c4ncc(Cl)cc34)ncc2F)C1 (single isomer, unassigned) [Compound 710]
IC50 [1, 5]: < 5 µM | EC50 [2, 6]: < 5 µM
